From the CheMixHub viscosity set
± gives the uncertainty stated by the source.

Test: xn = mol fraction of the nth substance listed

`CCCC(=O)[O-].[NH3+]CCO` + CCO showed a viscosity (293.15 K, 101 kPa, x1 = 0.0158) of 1.608 ± 0.074 mPa·s, a viscosity (293.15 K, 101 kPa, x2 = 0.7685) of 15.79 ± 0.83 mPa·s and a viscosity (293.15 K, 101 kPa, x2 = 0.8306) of 8.436 ± 0.56 mPa·s. The viscosity (293.15 K, 101 kPa, x2 = 0.8824) was 4.968 ± 0.28 mPa·s, the viscosity (293.15 K, 101 kPa, x2 = 0.9289) was 2.91 ± 0.15 mPa·s and the viscosity (293.15 K, 101 kPa, x2 = 0.9483) was 2.364 ± 0.11 mPa·s. The viscosity (293.15 K, 101 kPa, x2 = 0.9671) was 1.944 ± 0.091 mPa·s, the viscosity (298.15 K, 101 kPa, x1 = 0.0158) was 1.458 ± 0.067 mPa·s and the viscosity (298.15 K, 101 kPa, x2 = 0.7685) was 13.23 ± 0.71 mPa·s. The viscosity (298.15 K, 101 kPa, x2 = 0.8306) was 7.272 ± 0.37 mPa·s, the viscosity (298.15 K, 101 kPa, x2 = 0.8824) was 4.398 ± 0.21 mPa·s and the viscosity (298.15 K, 101 kPa, x2 = 0.9289) was 2.598 ± 0.12 mPa·s. It also gave a viscosity (298.15 K, 101 kPa, x2 = 0.9483) of 2.148 ± 0.1 mPa·s, a viscosity (298.15 K, 101 kPa, x2 = 0.9671) of 1.752 ± 0.081 mPa·s and a viscosity (303.15 K, 101 kPa, x1 = 0.0158) of 1.35 ± 0.061 mPa·s. The viscosity (303.15 K, 101 kPa, x2 = 0.7685) was 11.24 ± 0.61 mPa·s, the viscosity (303.15 K, 101 kPa, x2 = 0.8306) was 6.33 ± 0.27 mPa·s and the viscosity (303.15 K, 101 kPa, x2 = 0.8824) was 3.882 ± 0.17 mPa·s. The viscosity (303.15 K, 101 kPa, x2 = 0.9289) was 2.34 ± 0.1 mPa·s, the viscosity (303.15 K, 101 kPa, x2 = 0.9483) was 1.92 ± 0.089 mPa·s and the viscosity (303.15 K, 101 kPa, x2 = 0.9671) was 1.602 ± 0.072 mPa·s.
Compound `CCCOCC(C)OCC(C)O` (stereo not given) + CCO has a viscosity (298.15 K, 101.33 kPa, x1 = 0.05) of 1.27 ± 0.02 mPa·s, a viscosity (298.15 K, 101.33 kPa, x1 = 0.1) of 1.446 ± 0.022 mPa·s and a viscosity (298.15 K, 101.33 kPa, x1 = 0.15) of 1.621 ± 0.025 mPa·s. The viscosity (298.15 K, 101.33 kPa, x1 = 0.2) was 1.799 ± 0.027 mPa·s, the viscosity (298.15 K, 101.33 kPa, x1 = 0.25) was 1.994 ± 0.03 mPa·s and the viscosity (298.15 K, 101.33 kPa, x1 = 0.3) was 2.144 ± 0.032 mPa·s. It also gave a viscosity (298.15 K, 101.33 kPa, x1 = 0.3501) of 2.322 ± 0.034 mPa·s, a viscosity (298.15 K, 101.33 kPa, x1 = 0.4) of 2.485 ± 0.037 mPa·s and a viscosity (298.15 K, 101.33 kPa, x1 = 0.4501) of 2.643 ± 0.039 mPa·s. For the same compound, the viscosity (298.15 K, 101.33 kPa, x1 = 0.5) was 2.795 ± 0.041 mPa·s, the viscosity (298.15 K, 101.33 kPa, x1 = 0.55) was 2.942 ± 0.043 mPa·s and the viscosity (298.15 K, 101.33 kPa, x1 = 0.6) was 3.081 ± 0.045 mPa·s. It also gave a viscosity (298.15 K, 101.33 kPa, x1 = 0.6497) of 3.218 ± 0.047 mPa·s, a viscosity (298.15 K, 101.33 kPa, x1 = 0.6996) of 3.343 ± 0.048 mPa·s and a viscosity (298.15 K, 101.33 kPa, x1 = 0.7496) of 3.475 ± 0.05 mPa·s. For the same compound, the viscosity (298.15 K, 101.33 kPa, x1 = 0.8) was 3.593 ± 0.052 mPa·s, the viscosity (298.15 K, 101.33 kPa, x1 = 0.8499) was 3.704 ± 0.053 mPa·s and the viscosity (298.15 K, 101.33 kPa, x1 = 0.8999) was 3.807 ± 0.055 mPa·s. It also gave a viscosity (298.15 K, 101.33 kPa, x1 = 0.95) of 3.896 ± 0.056 mPa·s, a viscosity (308.15 K, 101.33 kPa, x1 = 0.05) of 1.046 ± 0.017 mPa·s and a viscosity (308.15 K, 101.33 kPa, x1 = 0.1) of 1.181 ± 0.018 mPa·s. For the same compound, the viscosity (308.15 K, 101.33 kPa, x1 = 0.15) was 1.315 ± 0.02 mPa·s, the viscosity (308.15 K, 101.33 kPa, x1 = 0.2) was 1.446 ± 0.022 mPa·s and the viscosity (308.15 K, 101.33 kPa, x1 = 0.25) was 1.572 ± 0.024 mPa·s. The viscosity (308.15 K, 101.33 kPa, x1 = 0.3) was 1.706 ± 0.026 mPa·s, the viscosity (308.15 K, 101.33 kPa, x1 = 0.3501) was 1.83 ± 0.028 mPa·s and the viscosity (308.15 K, 101.33 kPa, x1 = 0.4) was 1.944 ± 0.029 mPa·s. The viscosity (308.15 K, 101.33 kPa, x1 = 0.4501) was 2.055 ± 0.031 mPa·s, the viscosity (308.15 K, 101.33 kPa, x1 = 0.5) was 2.163 ± 0.032 mPa·s and the viscosity (308.15 K, 101.33 kPa, x1 = 0.55) was 2.27 ± 0.034 mPa·s. For the same compound, the viscosity (308.15 K, 101.33 kPa, x1 = 0.6) was 2.367 ± 0.035 mPa·s, the viscosity (308.15 K, 101.33 kPa, x1 = 0.6497) was 2.463 ± 0.036 mPa·s and the viscosity (308.15 K, 101.33 kPa, x1 = 0.6996) was 2.55 ± 0.038 mPa·s. It also gave a viscosity (308.15 K, 101.33 kPa, x1 = 0.7496) of 2.627 ± 0.039 mPa·s, a viscosity (308.15 K, 101.33 kPa, x1 = 0.8) of 2.702 ± 0.04 mPa·s and a viscosity (308.15 K, 101.33 kPa, x1 = 0.8499) of 2.764 ± 0.041 mPa·s. For the same compound, the viscosity (308.15 K, 101.33 kPa, x1 = 0.8999) was 2.839 ± 0.042 mPa·s, the viscosity (308.15 K, 101.33 kPa, x1 = 0.95) was 2.906 ± 0.043 mPa·s and the viscosity (318.15 K, 101.33 kPa, x1 = 0.05) was 0.872 ± 0.014 mPa·s. The viscosity (318.15 K, 101.33 kPa, x1 = 0.1) was 0.978 ± 0.016 mPa·s, the viscosity (318.15 K, 101.33 kPa, x1 = 0.15) was 1.081 ± 0.017 mPa·s and the viscosity (318.15 K, 101.33 kPa, x1 = 0.2) was 1.18 ± 0.018 mPa·s. The viscosity (318.15 K, 101.33 kPa, x1 = 0.25) was 1.278 ± 0.02 mPa·s, the viscosity (318.15 K, 101.33 kPa, x1 = 0.3) was 1.374 ± 0.021 mPa·s and the viscosity (318.15 K, 101.33 kPa, x1 = 0.3501) was 1.468 ± 0.023 mPa·s. For the same compound, the viscosity (318.15 K, 101.33 kPa, x1 = 0.4) was 1.55 ± 0.024 mPa·s, the viscosity (318.15 K, 101.33 kPa, x1 = 0.4501) was 1.631 ± 0.025 mPa·s and the viscosity (318.15 K, 101.33 kPa, x1 = 0.5) was 1.705 ± 0.026 mPa·s. For the same compound, the viscosity (318.15 K, 101.33 kPa, x1 = 0.55) was 1.777 ± 0.027 mPa·s, the viscosity (318.15 K, 101.33 kPa, x1 = 0.6) was 1.842 ± 0.028 mPa·s and the viscosity (318.15 K, 101.33 kPa, x1 = 0.6497) was 1.905 ± 0.029 mPa·s. It also gave a viscosity (318.15 K, 101.33 kPa, x1 = 0.6996) of 1.965 ± 0.029 mPa·s, a viscosity (318.15 K, 101.33 kPa, x1 = 0.7496) of 2.02 ± 0.03 mPa·s and a viscosity (318.15 K, 101.33 kPa, x1 = 0.8) of 2.081 ± 0.031 mPa·s. It also gave a viscosity (318.15 K, 101.33 kPa, x1 = 0.8499) of 2.131 ± 0.032 mPa·s, a viscosity (318.15 K, 101.33 kPa, x1 = 0.8999) of 2.177 ± 0.033 mPa·s and a viscosity (318.15 K, 101.33 kPa, x1 = 0.95) of 2.215 ± 0.033 mPa·s.
With `CC(=O)Nc1ccccc1` + CO the viscosity (298.15 K, 101 kPa, x1 = 0.08868) was 0.9964 ± 0.025 mPa·s, the viscosity (298.15 K, 101 kPa, x1 = 0.1132) was 1.158 ± 0.029 mPa·s and the viscosity (303.15 K, 101 kPa, x1 = 0.08868) was 0.918 ± 0.023 mPa·s. It also gave a viscosity (303.15 K, 101 kPa, x1 = 0.1132) of 1.057 ± 0.027 mPa·s, a viscosity (308.15 K, 101 kPa, x1 = 0.08868) of 0.8461 ± 0.021 mPa·s and a viscosity (308.15 K, 101 kPa, x1 = 0.1132) of 0.9716 ± 0.025 mPa·s. It also gave a viscosity (313.15 K, 101 kPa, x1 = 0.08868) of 0.7805 ± 0.02 mPa·s and a viscosity (313.15 K, 101 kPa, x1 = 0.1132) of 0.886 ± 0.022 mPa·s.
Work on `CCCOCC(C)OCC(C)O` (stereo not given) + CO yielded a viscosity (298.15 K, 101 kPa, x1 = 0.0049) of 0.5615 ± 0.011 mPa·s, a viscosity (298.15 K, 101 kPa, x1 = 0.0317) of 0.671 ± 0.011 mPa·s and a viscosity (298.15 K, 101 kPa, x1 = 0.0663) of 0.8138 ± 0.011 mPa·s. The viscosity (298.15 K, 101 kPa, x1 = 0.1021) was 0.9677 ± 0.012 mPa·s, the viscosity (298.15 K, 101 kPa, x1 = 0.1531) was 1.186 ± 0.012 mPa·s and the viscosity (298.15 K, 101 kPa, x1 = 0.2032) was 1.412 ± 0.013 mPa·s. For the same compound, the viscosity (298.15 K, 101 kPa, x1 = 0.2563) was 1.651 ± 0.014 mPa·s, the viscosity (298.15 K, 101 kPa, x1 = 0.3125) was 1.899 ± 0.015 mPa·s and the viscosity (298.15 K, 101 kPa, x1 = 0.3556) was 2.09 ± 0.016 mPa·s. For the same compound, the viscosity (298.15 K, 101 kPa, x1 = 0.4091) was 2.314 ± 0.017 mPa·s, the viscosity (298.15 K, 101 kPa, x1 = 0.4685) was 2.55 ± 0.018 mPa·s and the viscosity (298.15 K, 101 kPa, x1 = 0.5204) was 2.746 ± 0.019 mPa·s. For the same compound, the viscosity (298.15 K, 101 kPa, x1 = 0.5557) was 2.869 ± 0.019 mPa·s, the viscosity (298.15 K, 101 kPa, x1 = 0.6337) was 3.117 ± 0.02 mPa·s and the viscosity (298.15 K, 101 kPa, x1 = 0.6879) was 3.273 ± 0.021 mPa·s. For the same compound, the viscosity (298.15 K, 101 kPa, x1 = 0.7232) was 3.366 ± 0.022 mPa·s, the viscosity (298.15 K, 101 kPa, x1 = 0.8407) was 3.639 ± 0.023 mPa·s and the viscosity (298.15 K, 101 kPa, x1 = 0.8827) was 3.724 ± 0.023 mPa·s. It also gave a viscosity (298.15 K, 101 kPa, x1 = 0.937) of 3.813 ± 0.024 mPa·s.
